The assay concerns P388 leukemia ip, CD2F1 mice, survival T/C. The experiment in a line: NCI In Vivo Anticancer Drug Screen. Data for tumor model P388 Leukemia (intraperitoneal) in CD2F1 (CDF1) mice. The following applies: endpoint: median survival time, higher = longer survival. Put shortly:
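Mice carrying the transplanted tumor received test compound or vehicle. Survival was recorded in each group, and the value is the treated-group measurement divided by that of the vehicle-treated control group.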

[1] abbreviates: dose: 6.25 mg/kg/injection, schedule: Q01DX009 (ip), vehicle: water.
[2] abbreviates: dose: 50.0 mg/kg/injection, schedule: Q01DX009 (ip), vehicle: water.
Where [3] appears, read: dose: 100.0 mg/kg/injection, schedule: Q01DX009 (ip), vehicle: water.
The mark [4] stands for this setting: dose: 50.0 mg/kg/injection, schedule: Q01DX005 (ip), vehicle: saline.
The mark [5] stands for this setting: dose: 100.0 mg/kg/injection, schedule: Q01DX005 (ip), vehicle: saline.
[6] abbreviates: dose: 60.0 mg/kg/injection, schedule: Q01DX005 (ip), vehicle: Klucel (hydroxypropylcellulose) (HPC).
Setting [7] is: dose: 120.0 mg/kg/injection, schedule: Q01DX005 (ip), vehicle: Klucel (hydroxypropylcellulose) (HPC).
Setting [8] is: dose: 50.0 mg/kg/injection, schedule: Q01DX005 (ip), vehicle: saline with Tween-80.
[9] abbreviates: dose: 100.0 mg/kg/injection, schedule: Q01DX005 (ip), vehicle: saline with Tween-80.
The mark [10] stands for this setting: dose: 50.0 mg/kg/injection, schedule: Q01DX009 (ip), vehicle: Klucel (hydroxypropylcellulose) (HPC).
The mark [11] stands for this setting: dose: 100.0 mg/kg/injection, schedule: Q01DX009 (ip), vehicle: Klucel (hydroxypropylcellulose) (HPC).
Setting [12] is: dose: 200.0 mg/kg/injection, schedule: Q01DX009 (ip), vehicle: Klucel (hydroxypropylcellulose) (HPC).
Setting [13] is: dose: 50.0 mg/kg/injection, schedule: Q01DX009 (ip), vehicle: saline.
[14] abbreviates: dose: 100.0 mg/kg/injection, schedule: Q01DX009 (ip), vehicle: saline.
Setting [15] is: dose: 200.0 mg/kg/injection, schedule: Q01DX009 (ip), vehicle: saline.
Setting [16] is: dose: 50.0 mg/kg/injection, schedule: Q01DX005 (ip), vehicle: Klucel (hydroxypropylcellulose) (HPC).
The mark [17] stands for this setting: dose: 100.0 mg/kg/injection, schedule: Q01DX005 (ip), vehicle: Klucel (hydroxypropylcellulose) (HPC).
Setting [18] is: dose: 200.0 mg/kg/injection, schedule: Q01DX005 (ip), vehicle: Klucel (hydroxypropylcellulose) (HPC).

Several values for one entry are separate records, joined by “and”; a condition that tells them apart may be missing. Equal values may be shown once. Inconclusive results and toxic doses are left out.

Regarding `O=C=C=O`, the T/C (dose: 1:2.0 dilution, schedule: Q01DX001 (ip), vehicle: none) was 102 % of control; the T/C (dose: 1:4.0 dilution, schedule: Q01DX001 (ip), vehicle: none) was 104 % of control; the T/C (dose: 1:8.0 dilution, schedule: Q01DX001 (ip), vehicle: none) is 99 % of control.

As to `ClCCc1cnc[nH]1`, the T/C reads like this: under setting [1], 101 % of control; (dose: 12.5 mg/kg/injection, schedule: Q01DX009 (ip), vehicle: water) 101 % of control; (dose: 25.0 mg/kg/injection, schedule: Q01DX009 (ip), vehicle: water) 108 % of control; under setting [2], 110 % of control; under setting [3], 95 % of control.

Consider `CC[C@@H]1CN2CCc3c([nH]c4ccccc34)[C@@H]2C[C@@H]1/C(=C\OC)C(=O)OC`, for which the T/C (dose: 25.0 mg/kg/injection, schedule: Q01DX005 (ip), vehicle: saline) was 100 % of control and 96 % of control; the T/C under setting [4] was 98 % of control and 107 % of control and 108 % of control; the T/C under setting [5] was 109 % of control (2×) and 123 % of control.

With `O=C(O)CCSC(=S)NN1CCN(NC(=S)SCCC(=O)O)CC1`, the T/C under setting [6] is 108 % of control; the T/C under setting [7] is 100 % of control; the T/C (dose: 240.0 mg/kg/injection, schedule: Q01DX005 (ip), vehicle: Klucel (hydroxypropylcellulose) (HPC)) was 96 % of control.

For the molecule `[N-]=[N+]=Nc1ccc(NCCN2C(=O)C=CC2=O)c([N+](=O)[O-])c1`, the T/C is 103 % of control under setting [8]; 101 % of control under setting [9]; 101 % of control (dose: 200.0 mg/kg/injection, schedule: Q01DX005 (ip), vehicle: saline with Tween-80).

In the case of `CC(C)CCCC(C)C1CCC2C3CCC4CC(OS(C)(=O)=O)CCC4(C)C3CCC12C` (stereo not drawn), the T/C under setting [10] was 96 % of control, the T/C under setting [11] is 106 % of control and the T/C under setting [12] is 103 % of control.

`CN(C)C(CC(N)=O)C(=O)O` (stereo not drawn): the T/C was 101 % of control under setting [2]; 102 % of control under setting [3]; 97 % of control (dose: 200.0 mg/kg/injection, schedule: Q01DX009 (ip), vehicle: water).

In the case of `CCN=c1cc2sc3cc(NCC)c(C)cc3nc-2cc1C`, the T/C runs as follows: (dose: 12.5 mg/kg/injection, schedule: Q01DX009 (ip), vehicle: saline) 97 % of control; (dose: 25.0 mg/kg/injection, schedule: Q01DX009 (ip), vehicle: saline) 99 % of control; under setting [13], 101 % of control; under setting [14], 90 % of control.

Turning to `CC1(C)CC(=O)N(CN2CCOCC2)C(=O)C1`, the T/C is, setting by setting: (dose: 60.0 mg/kg/injection, schedule: Q01DX005 (ip), vehicle: saline) 100 % of control; (dose: 120.0 mg/kg/injection, schedule: Q01DX005 (ip), vehicle: saline) 100 % of control; (dose: 240.0 mg/kg/injection, schedule: Q01DX005 (ip), vehicle: saline) 110 % of control.

In the case of `CCCCCCCCCCCCCCCCOc1ccc(C(=O)O)cc1S(=O)(=O)N/N=c1/sc2cc(Cl)cc(Cl)c2n1C`, the T/C by setting is: under setting [13], 88 % of control; under setting [14], 93 % of control; under setting [15], 86 % of control.

Regarding `NC(CCC(=O)NCC(=O)O)C(=O)O` (stereo not drawn), the T/C by setting is: under setting [4], 94 % of control; under setting [5], 104 % of control; (dose: 200.0 mg/kg/injection, schedule: Q01DX005 (ip), vehicle: saline) 102 % of control.

As to `CCCCCCCCCNCC(O)c1cc2c(c3ccccc13)CCCC2` (stereo not drawn), the T/C by setting is: (dose: 6.25 mg/kg/injection, schedule: Q01DX005 (ip), vehicle: Klucel (hydroxypropylcellulose) (HPC)) 92 % of control; (dose: 12.5 mg/kg/injection, schedule: Q01DX005 (ip), vehicle: Klucel (hydroxypropylcellulose) (HPC)) 90 % of control; (dose: 25.0 mg/kg/injection, schedule: Q01DX005 (ip), vehicle: Klucel (hydroxypropylcellulose) (HPC)) 99 % of control.

In the case of `O=C1C=C2CCCCCCCCC(C1)C2` (stereo not drawn), the T/C is 99 % of control under setting [16], 96 % of control under setting [17] and 89 % of control under setting [18].

Consider `COC(OC)C(=O)OC(C)(C)C`, for which the T/C was 103 % of control (dose: 60.0 mg/kg/injection, schedule: Q01DX005 (ip), vehicle: saline with Tween-80); 100 % of control (dose: 120.0 mg/kg/injection, schedule: Q01DX005 (ip), vehicle: saline with Tween-80); 101 % of control (dose: 240.0 mg/kg/injection, schedule: Q01DX005 (ip), vehicle: saline with Tween-80).

On to `C1CC1c1nn[nH]n1`, for which the T/C was 109 % of control under setting [10], 110 % of control under setting [11] and 107 % of control under setting [12].

In the case of `COc1cc(N=Nc2ccccc2)cc(/C=N\NC(=S)Nc2ccc(C)cc2)c1O`, the T/C was 94 % of control under setting [8] and 96 % of control under setting [9].

Regarding `COC(=O)COC(=O)CCCCC(=O)OCC(=O)OC`, the T/C runs as follows: under setting [13], 111 % of control; under setting [14], 109 % of control; under setting [15], 103 % of control.

As to `COc1ccc(C2OC3=C(Nc4cc(C)c(C)cc4N3)C2=O)cc1` (stereo not drawn), the T/C is 89 % of control under setting [6] and 89 % of control under setting [7].

On to `CC[C@]1(O)Cc2c(O)c3c(c(O)c2[C@@H](OC2CC(N)C(O)C(C)O2)C1)C(=O)c1c(OC)cccc1C3=O` (stereo partly drawn), for which the T/C by setting is: (dose: 1.2 mg/kg/injection, schedule: Q04DX003 (ip), vehicle: water) 117 % of control; (dose: 1.56 mg/kg/injection, schedule: Q01DX009 (ip), vehicle: water) 151 % of control and 169 % of control; (dose: 2.4 mg/kg/injection, schedule: Q04DX003 (ip), vehicle: water) 119 % of control; (dose: 3.13 mg/kg/injection, schedule: Q01DX009 (ip), vehicle: water) 156 % of control and 163 % of control; under setting [1], 95 % of control; (dose: 37.5 mg/kg/injection, schedule: Q04DX003 (ip), vehicle: water) 103 % of control.

As to `Cc1ccc(SCC#CC#CCS(=O)c2ccc(C)cc2)cc1` (stereo not drawn), the T/C runs as follows: under setting [8], 110 % of control; under setting [9], 107 % of control.

Consider `O=C(N=C(Oc1ccccc1)Oc1ccccc1)N=C(Oc1ccccc1)Oc1ccccc1`, for which the T/C is, setting by setting: under setting [16], 94 % of control; under setting [17], 88 % of control; under setting [18], 91 % of control.

Regarding `N#Cc1cn(Cc2ccccc2)c2ccccc2c1=O`, the T/C by setting is: under setting [16], 100 % of control; under setting [17], 103 % of control; under setting [18], 103 % of control.

On to `N#Cc1ccccc1NN=Nc1ccccc1-c1nc(N)nc(N)n1`, for which the T/C (dose: 12.0 mg/kg/injection, schedule: Q04DX003 (ip), vehicle: saline) was 113 % of control; the T/C (dose: 25.0 mg/kg/injection, schedule: Q04DX003 (ip), vehicle: saline) is 113 % of control; the T/C (dose: 50.0 mg/kg/injection, schedule: Q04DX003 (ip), vehicle: saline) was 181 % of control.

`COC(=O)CCN1CCCC1CC(O)/C=C/c1ccccc1` (stereo not drawn): the T/C is 93 % of control (dose: 100.0 mg/kg/injection, schedule: Q01DX001 (ip), vehicle: saline with Tween-80); 100 % of control (dose: 200.0 mg/kg/injection, schedule: Q01DX001 (ip), vehicle: saline with Tween-80); 106 % of control (dose: 400.0 mg/kg/injection, schedule: Q01DX001 (ip), vehicle: saline with Tween-80).

For `NC1=C(Cl)C(=O)C(N)=C(Cl)C1=O`, the T/C reads like this: (dose: 25.0 mg/kg/injection, schedule: Q01DX009 (ip), vehicle: saline with Tween-80) 113 % of control; under setting [10], 100 % of control; (dose: 50.0 mg/kg/injection, schedule: Q01DX009 (ip), vehicle: saline with Tween-80) 100 % of control; under setting [11], 103 % of control; (dose: 100.0 mg/kg/injection, schedule: Q01DX009 (ip), vehicle: saline with Tween-80) 100 % of control; under setting [12], 105 % of control. Also, the T/C is, setting by setting: (dose: 200.0 mg/kg/injection, schedule: Q01DX009 (ip), vehicle: saline with Tween-80) 94 % of control; (dose: 400.0 mg/kg/injection, schedule: Q01DX009 (ip), vehicle: Klucel (hydroxypropylcellulose) (HPC)) 99 % of control.
